According to publication PMC11393688, “Design and synthesis of new 1,2,4-oxadiazole/quinazoline-4-one hybrids with antiproliferative activity as multitargeted inhibitors” (Frontiers in Chemistry, 2024):

Tests used:
[1] = Cell viability, MTT test on normal cell line; assay type: cell-based; conditions: human, MCF-10A mammary gland epithelial cells (normal cell line), MCF-10A normal cells, 4 days incubation
Description: The human mammary gland epithelial (MCF-10A) normal cell line was used to test the viability of novel compounds 9a-o ([Mahmoud et al., 2022]; [Mekheimer et al., 2022]). After 4 days of incubation on MCF-10A cells, the cell viability of compounds 9a-o was determined using the MTT test.
The human mammary gland epithelial (MCF-10A) normal cell line was used to test the viability of compounds 9a-o ([Mahmoud et al., 2022]; [Mekheimer et al., 2022]). Refer to Supplementary Appendix A (Supplementary Material) for more details.
4.2. Biological evaluation
4.2.1. Cytotoxic activity using MTT Assay and evaluation of IC50
MTT assay was carried out to study the effect of compounds on mammary epithelial cells (MCF-10A). The medium in which cells were propagated contained Dulbecco's modified Eagle's medium (DMEM)/ Ham's F-12 medium (1:1) supplemented with epidermal growth factor (20 ng/mL), hydrocortisone (500 ng/mL), insulin (10 μg/mL), 2 mM glutamine and 10% foetal calf serum.
After every 2-3 days, the cells were passaged using trypsin ethylenediamine tetra acetic acid (EDTA). The cells were seeded at a density of 10^4 cells mL-1 in flat-bottomed culture plates containing 96 wells each. After 24 h, medium was removed from the plates and the compounds in (in 0.1% DMSO) were added (in 200 μL medium to yield a final concentration of 0.1% v/v) to the wells of plates. A single compound was designated with four wells followed by incubation of plates for 96h at 37°C. After incubation, medium was removed completely from the plates followed by addition of MTT (0.4 mg/mL in medium) to each well and subsequent incubation of plates for 3h. MTT (along with the medium) was removed and DMSO (150μL) was added to each well of the culture plates, followed by vertexing and subsequent measurement of absorbance (at 540 nm) using microplate reader. The data are shown as percentage inhibition of proliferation in comparison with controls containing 0.1% DMSO.

[2] = test system: lung cancer (A-549) cell line; test: Antiproliferative MTT assay, A-549; assay type: cell-based; conditions: Homo sapiens, A549, A-549 lung cancer cells, read-out: Antiproliferative activity IC50 ± SEM A-549
Description: (§1) 4.2.1.2. Assay for antiproliferative effect
(§2) To explore the antiproliferative potential of compounds MTT assay was performed according to previously reported procedure using different cell lines to explore the antiproliferative potential of […]
(§3) calculate the total nuclear DNA, a fluorescent dye (propidium iodide, PI) is used which can attach to the DNA, thus offering a quick and precise technique. PI cannot pass through the cell membrane and its signal intensity can be considered as directly proportional to quantity of cellular DNA.
(§4) Cells whose cell membranes are damaged or have changed permeability are counted as dead ones.
(§5) The assay was performed by seeding the cells of different cell lines at a density of 3000-7500 cells/well (in 200µl medium) in culture plates followed by incubation for 24h at 37 °C in humidified 5% CO2/95% air atmospheric conditions. The medium was removed; the compounds were added to the plates at 10 µM concentrations (in 0.1% DMSO) in triplicates, followed by incubation for 48 h. DMSO (0.1%) was used as control. After incubation, medium was removed […]
(§6) 80 °C, the plates were allowed to freeze for 24 h, followed by thawing at 25 °C. […]
(§7) (Polar-Star BMG Tech) was used to record the readings at excitation and emission wavelengths of 530 and 620 nm for each well. The percentage cytotoxicity of compounds was calculated using […]
(§8) Where ATC= Absorbance of treated cells and AC= Absorbance of control. Erlotinib was used as positive control in the assay.

[3] = test system: breast cancer (MCF-7) cell line; test: Antiproliferative MTT assay, MCF-7; assay type: cell-based; conditions: Homo sapiens, MCF7, MCF-7 breast cancer cells, read-out: Antiproliferative activity IC50 ± SEM MCF-7
Description: as §1, §2, §3, §4, §5, §6, §7, §8

[4] = test system: pancreatic cancer (Panc-1) cell line; test: Antiproliferative MTT assay, Panc-1; assay type: cell-based; conditions: Homo sapiens, Panc-1 pancreatic cancer cells, read-out: Antiproliferative activity IC50 ± SEM Panc-1
Description: as §1, §2, §3, §4, §5, §6, §7, §8

[5] = test system: four human cancer cell lines (HT-29, Panc-1, A-549, MCF-7); test: Average antiproliferative activity (GI50) over four cancer cell lines; assay type: cell-based; conditions: average IC50 against the four cancer cell lines
Description: as §1, §2, §3, §4, §5, §6, §7, §8

[6] = test system: colon cancer (HT-29) cell line; test: Antiproliferative MTT assay, HT-29; assay type: cell-based; conditions: Homo sapiens, HT-29 colon cancer cells, read-out: Antiproliferative activity IC50 ± SEM HT-29
EGFR = molecular target: T1, EGFR (Homo sapiens, UniProt P00533); test: EGFR-TK inhibitory assay; assay type: biochemical; conditions: read-out: EGFR inhibition IC50 ± SEM
T1 construct: amino acids 645–1186; His6 (N); made in house; host or cells: Sf-9 insect cells (baculovirus; pBlueBacHis2B / pFASTBacHTc)
T1 sequence (P00533 669-1210): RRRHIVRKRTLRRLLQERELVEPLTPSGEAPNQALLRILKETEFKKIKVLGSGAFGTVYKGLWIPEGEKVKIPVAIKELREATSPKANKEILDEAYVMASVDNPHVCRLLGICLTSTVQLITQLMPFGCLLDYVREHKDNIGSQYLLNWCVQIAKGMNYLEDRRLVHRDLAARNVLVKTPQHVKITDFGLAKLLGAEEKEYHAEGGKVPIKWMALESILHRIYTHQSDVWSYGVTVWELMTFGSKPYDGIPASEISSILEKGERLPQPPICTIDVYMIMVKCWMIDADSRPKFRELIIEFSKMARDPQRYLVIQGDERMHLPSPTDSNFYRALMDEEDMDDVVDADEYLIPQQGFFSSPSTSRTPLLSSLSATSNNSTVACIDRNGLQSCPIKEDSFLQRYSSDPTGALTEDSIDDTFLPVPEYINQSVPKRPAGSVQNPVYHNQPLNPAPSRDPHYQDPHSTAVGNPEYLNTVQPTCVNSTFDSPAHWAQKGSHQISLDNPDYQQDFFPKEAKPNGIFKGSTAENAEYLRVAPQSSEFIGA
Description: 4.2.1.3. EGFR inhibitory assay
Sf-9 cells were infected for 72h for protein expression. […]
centrifugation for 20 min.
Histidine-linked proteins were first eluted with 250 and then […]
using wash buffer. Europium-tagged antiphosphotyrosine antibody (75 µL, 400 ng) was added to each well followed by incubation of 1h and then washing of the plates using buffer. The enhancement solution was added to each well and the signal was recorded at excitation and […]
The autophosphorylation percentage inhibition by compounds was calculated using the following equation: […]
(1 picture or pasted object on this page, not shown here)

BRAF^V600E = molecular target: T2, BRAF^V600E (Homo sapiens, UniProt P15056, V600E); test: BRAF^V600E kinase inhibitory assay; assay type: biochemical, Mouse; conditions: read-out: BRAF^V600E inhibition IC50 ± SEM
T2 construct: Mouse full-length GST-tagged BRAFV600E; GST; purchased Invitrogen PV3849
T2 sequence (P15056 2-766 V600E limits assumed): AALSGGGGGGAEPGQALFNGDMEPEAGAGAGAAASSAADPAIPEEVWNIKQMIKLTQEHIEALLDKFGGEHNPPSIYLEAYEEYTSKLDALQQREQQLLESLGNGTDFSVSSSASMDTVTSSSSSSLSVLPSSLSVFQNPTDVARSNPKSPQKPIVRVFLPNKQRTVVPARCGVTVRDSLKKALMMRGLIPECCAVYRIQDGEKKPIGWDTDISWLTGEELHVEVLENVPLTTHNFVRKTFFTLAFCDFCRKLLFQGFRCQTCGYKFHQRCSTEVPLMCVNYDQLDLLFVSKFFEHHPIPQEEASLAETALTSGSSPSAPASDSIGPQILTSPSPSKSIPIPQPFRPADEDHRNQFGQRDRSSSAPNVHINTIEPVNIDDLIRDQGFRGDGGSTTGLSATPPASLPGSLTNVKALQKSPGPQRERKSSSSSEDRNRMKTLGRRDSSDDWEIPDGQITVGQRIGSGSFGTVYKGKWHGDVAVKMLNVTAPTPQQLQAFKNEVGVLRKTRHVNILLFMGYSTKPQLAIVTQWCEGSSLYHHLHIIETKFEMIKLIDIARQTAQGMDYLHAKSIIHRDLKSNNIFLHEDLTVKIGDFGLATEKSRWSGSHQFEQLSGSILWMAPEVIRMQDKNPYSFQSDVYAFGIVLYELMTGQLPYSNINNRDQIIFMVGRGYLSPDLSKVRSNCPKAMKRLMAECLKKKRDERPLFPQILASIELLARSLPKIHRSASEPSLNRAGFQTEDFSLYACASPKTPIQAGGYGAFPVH
Description: Refer to Supplementary Appendix A for more details. […]
4.2.1.4. BRAF kinase assay […]
against BRAF. Mouse full-length GST-tagged BRAFV600E (7.5 ng, Invitrogen, PV3849) was pre-incubated with drug (1 µL) and assay dilution buffer (4 µL) for 60 min at 25 °C. In assay dilution buffer, a solution (5 µL) containing MgCl2 (30 mM), ATP (200 µM), recombinant human full length (200 ng) […] N-terminal His-tagged MEK1 (Invitrogen) was added to start the assay, subsequent to incubation for 25 min at 25 °C. The assay was stopped using 5X protein denaturing buffer (LDS) solution (5 µL). To further denature the protein, heat (70° C) was applied for 5 min.
10 µL of each reaction was loaded into the precast plates and electrophoresis was allowed to proceed. After completion of electrophoresis, the front part of the precast gel plate (holding hot ATP) was cut and afterwards cast-off. The dried gel was developed using a phosphor screen. A […]
served as positive control. […]
(FITC) and propidium iodide (PI) staining kit (BD Pharmingen, San Diego, USA). […]
4.3. Statistical analysis
Computerized Prism 5 program was used to statistically analyzed data using one-way ANOVA test followed by Tukey’s as post ANOVA for multiple comparison at P ≤.05. Data were presented

| Structure (SMILES) | viability at 96 h, 50 µM [1] | IC50 [2] | IC50 [3] | IC50 [4] | GI50 [5] | melting point | IC50 [6] | IC50 (EGFR) | IC50 (BRAF^V600E) |
| --- | --- | --- | --- | --- | --- | --- | --- | --- | --- |
| O=c1c2ccccc2nc(SCc2nc(-c3ccccc3)no2)n1-c1ccccc1 [Compound 9a, 2-((3-Phenyl-1,2,4-oxadiazol-5-yl)methylthio)-3-phenylquinazolin-4(3H)-one] | 90% | 46 ± 4 nM | 50 ± 4 nM | 48 ± 4 nM | 48 nM | 162 to 164 °C | 48 ± 4 nM | – | – |
| Cc1ccc(-n2c(SCc3nc(-c4ccccc4)no3)nc3ccccc3c2=O)cc1 [Compound 9d, 2-((3-Phenyl-1,2,4-oxadiazol-5-yl)methylthio)-3-p-tolylquinazolin-4(3H)-one] | 90% | 54 ± 4 nM | 58 ± 5 nM | 54 ± 5 nM | 55 nM | 168 to 170 °C | 55 ± 5 nM | – | – |
| Cc1ccc(-n2c(SCc3nc(-c4ccc(Cl)cc4)no3)nc3ccccc3c2=O)cc1 [Compound 9e, 2-((3-(4-Chlorophenyl)-1,2,4-oxadiazol-5-yl)methylthio)-3-p-tolylquinazolin-4(3H)-one] | 91% | 40 ± 3 nM | 44 ± 4 nM | 42 ± 4 nM | 42 nM | 156 to 158 °C | 42 ± 4 nM | – | – |
| COc1ccc(-c2noc(CSc3nc4ccccc4c(=O)n3-c3ccc(C)cc3)n2)cc1 [Compound 9f, 2-((3-(4-Methoxyphenyl)-1,2,4-oxadiazol-5-yl)methylthio)-3-p-tolylquinazolin-4(3H)-one] | 92% | 50 ± 4 nM | 53 ± 5 nM | 52 ± 5 nM | 52 nM | 165 to 167 °C | 52 ± 5 nM | – | – |
| Cc1cccc(-n2c(SCc3nc(-c4ccccc4)no3)nc3ccccc3c2=O)c1 [Compound 9g, 2-((3-Phenyl-1,2,4-oxadiazol-5-yl)methylthio)-3-m-tolylquinazolin-4(3H)-one] | 90% | 49 ± 4 nM | 52 ± 5 nM | 50 ± 5 nM | 50 nM | 170 to 172 °C | 50 ± 5 nM | – | – |
| COc1ccc(-c2noc(CSc3nc4ccccc4c(=O)n3-c3cccc(C)c3)n2)cc1 [Compound 9i, 2-((3-(4-Methoxyphenyl)-1,2,4-oxadiazol-5-yl)methylthio)-3-m-tolylquinazolin-4(3H)-one] | 91% | 65 ± 6 nM | 69 ± 6 nM | 66 ± 6 nM | 67 nM | 194 to 196 °C | 68 ± 6 nM | – | – |
| CCn1c(SCc2nc(-c3ccccc3)no2)nc2ccccc2c1=O [Compound 9j, 2-((3-Phenyl-1,2,4-oxadiazol-5-yl)methylthio)-3-ethylquinazolin-4(3H)-one] | 90% | 69 ± 6 nM | 76 ± 7 nM | 68 ± 6 nM | 70 nM | 114 to 116 °C | 68 ± 6 nM | – | – |
| CCn1c(SCc2nc(-c3ccc(Cl)cc3)no2)nc2ccccc2c1=O [Compound 9k, 2-((3-(4-Chlorophenyl)-1,2,4-oxadiazol-5-yl)methylthio)-3-ethylquinazolin-4(3H)-one] | 93% | 32 ± 3 nM | 35 ± 3 nM | 34 ± 3 nM | 34 nM | 118 to 120 °C | 34 ± 3 nM | 84 ± 6 nM | 62 ± 5 nM |
| CCn1c(SCc2nc(-c3ccc(OC)cc3)no2)nc2ccccc2c1=O [Compound 9l, 2-((3-(4-Methoxyphenyl)-1,2,4-oxadiazol-5-yl)methylthio)-3-ethylquinazolin-4(3H)-one] | 90% | 36 ± 3 nM | 40 ± 4 nM | 38 ± 3 nM | 38 nM | 134 to 136 °C | 37 ± 3 nM | 91 ± 7 nM | 70 ± 5 nM |
| C=CCn1c(SCc2nc(-c3ccccc3)no2)nc2ccccc2c1=O [Compound 9m, 2-((3-Phenyl-1,2,4-oxadiazol-5-yl)methylthio)-3-allylquinazolin-4(3H)-one] | 92% | 62 ± 6 nM | 65 ± 6 nM | 64 ± 6 nM | 63 nM | 110 to 112 °C | 62 ± 6 nM | – | – |
| C=CCn1c(SCc2nc(-c3ccc(Cl)cc3)no2)nc2ccccc2c1=O [Compound 9n, 2-((3-(4-Chlorophenyl)-1,2,4-oxadiazol-5-yl)methylthio)-3-allylquinazolin-4(3H)-one] | 91% | 43 ± 4 nM | 47 ± 4 nM | 45 ± 4 nM | 45 nM | 115 to 117 °C | 44 ± 4 nM | – | – |
| C=CCn1c(SCc2nc(-c3ccc(OC)cc3)no2)nc2ccccc2c1=O [Compound 9o, 2-((3-(4-Methoxyphenyl)-1,2,4-oxadiazol-5-yl)methylthio)-3-allylquinazolin 4(3H)-one] | 89% | 56 ± 4 nM | 59 ± 5 nM | 57 ± 5 nM | 57 nM | 122 to 124 °C | 57 ± 5 nM | – | – |
| C#Cc1cccc(Nc2ncnc3cc(OCCOC)c(OCCOC)cc23)c1 [Erlotinib, reference compound] | – | 30 ± 3 nM | 40 ± 3 nM | 30 ± 3 nM | 33 nM | – | 30 ± 3 nM | – | – |
